Source: ChEMBL document CHEMBL1201862, “PubChem BioAssay data set” (2004)
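Method: 48-hour compound exposure of cells in 96-well plates, five concentrations, linear interpolation of endpoints. Abbreviation: GI50, concentration required for 50% inhibition of growth.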 Activity calls are given as the source filed them. Rule as the data show it: active = GI50 up to about 1.1 µM and inactive = higher.

Columns and labels:
Test in all cases: NCI anticancer screen, dose series, 48 h
BT-549 = system: BT-549
SNB-75 = system: SNB-75
DU-145 = system: DU-145
SK-OV-3 = system: SK-OV-3
MDA-MB-231 = system: MDA-MB-231
ACHN = system: ACHN
A549 = system: A549
OVCAR-5 = system: OVCAR-5
OVCAR-4 = system: OVCAR-4
HT-29 = system: HT-29
MDA-MB-435 = system: MDA-MB-435
EKVX = system: EKVX
HOP-92 = system: HOP-92
RXF 393 = system: RXF 393
IGROV-1 = system: IGROV-1
HL-60 = system: HL-60
Malme-3M = system: Malme-3M
M14 = system: M14
SR = system: SR

Row | Structure (SMILES) | GI50 (BT-549) | GI50 (SNB-75) | GI50 (DU-145) | GI50 (SK-OV-3) | GI50 (MDA-MB-231) | GI50 (ACHN) | GI50 (A549) | GI50 (OVCAR-5) | GI50 (OVCAR-4) | GI50 (HT-29) | GI50 (MDA-MB-435) | GI50 (EKVX) | GI50 (HOP-92) | GI50 (RXF 393) | GI50 (IGROV-1) | GI50 (HL-60) | GI50 (Malme-3M) | GI50 (M14) | GI50 (SR)
1 | CCOC(=O)/C(C#N)=C(/NNc1ccccc1)c1ccncc1C(=O)O | > 100 µM (inactive) | > 100 µM (inactive) | > 42.7 µM (inactive) | > 100 µM (inactive) | > 100 µM (inactive) | > 21.5 µM (inactive) | > 52.7 µM (inactive) | > 72.1 µM (inactive) | > 100 µM (inactive) | > 63.5 µM (inactive) | 5.68 µM (inactive) | > 100 µM (inactive) | > 100 µM (inactive) | > 100 µM (inactive) | > 100 µM (inactive) | 2.75 µM (inactive) | > 100 µM (inactive) | 5.66 µM (inactive) | –
2 | C=C(C)C1CC2(C)C(C)CC(OC(=O)/C(C)=C\C)CC2C(OC(=O)/C(C)=C\C)C1O (stereo not given) | 62.1 µM (inactive) | 22 µM (inactive) | 66.8 µM (inactive) | > 100 µM (inactive) | > 100 µM (inactive) | 32.9 µM (inactive) | 39.5 µM (inactive) | > 100 µM (inactive) | > 100 µM (inactive) | 35.8 µM (inactive) | 55.3 µM (inactive) | 67 µM (inactive) | 51.2 µM (inactive) | – | 66.2 µM (inactive) | 21.4 µM (inactive) | > 100 µM (inactive) | > 100 µM (inactive) | 19.8 µM (inactive)
3 | O=C(O)CC1NC(/C(=C/c2ccccc2)NC(=O)c2ccccc2)OC1=O (stereo not given) | 19.9 µM (inactive) | 29 µM (inactive) | 52.4 µM (inactive) | 55.3 µM (inactive) | 27.4 µM (inactive) | > 100 µM (inactive) | 84.5 µM (inactive) | 76 µM (inactive) | 51.1 µM (inactive) | 29.8 µM (inactive) | 24.6 µM (inactive) | 39.6 µM (inactive) | > 100 µM (inactive) | 34.5 µM (inactive) | 25.1 µM (inactive) | 11.6 µM (inactive) | 36.9 µM (inactive) | 17.1 µM (inactive) | –
4 | O=C(O)c1ccc2c(c1)Cc1cc([N+](=O)[O-])ccc1-2 | > 100 µM (inactive) | > 100 µM (inactive) | > 100 µM (inactive) | > 100 µM (inactive) | > 100 µM (inactive) | > 100 µM (inactive) | > 100 µM (inactive) | > 100 µM (inactive) | > 100 µM (inactive) | > 100 µM (inactive) | > 100 µM (inactive) | > 100 µM (inactive) | 30.5 µM (inactive) | – | > 100 µM (inactive) | > 100 µM (inactive) | > 100 µM (inactive) | > 100 µM (inactive) | 86.1 µM (inactive)
5 | CN(C)C1=Nc2ccccc2C(=S)N2CSCC12 (stereo not given) | 78.5 µM (inactive) | 57.3 µM (inactive) | > 100 µM (inactive) | > 100 µM (inactive) | 44.3 µM (inactive) | > 100 µM (inactive) | > 100 µM (inactive) | > 100 µM (inactive) | > 100 µM (inactive) | 75.9 µM (inactive) | > 100 µM (inactive) | 41.1 µM (inactive) | – | 44.7 µM (inactive) | 19.1 µM (inactive) | – | 32.7 µM (inactive) | 66.2 µM (inactive) | 17.9 µM (inactive)
6 | CSc1c(C#N)c2n(c3ccccc3[n+]2C)c2ncccc12 | 28.4 µM (inactive) | 17.3 µM (inactive) | 13.9 µM (inactive) | 36.1 µM (inactive) | 18.5 µM (inactive) | 18.7 µM (inactive) | 12.5 µM (inactive) | 23.2 µM (inactive) | 30.8 µM (inactive) | 26.7 µM (inactive) | 32 µM (inactive) | 21.7 µM (inactive) | – | 17.9 µM (inactive) | 24.7 µM (inactive) | – | 19.4 µM (inactive) | 21.2 µM (inactive) | 23.5 µM (inactive)
7 | CCc1n[nH]c(=O)n1NC(=O)c1ccccc1C(=O)O | > 100 µM (inactive) | > 100 µM (inactive) | > 100 µM (inactive) | > 100 µM (inactive) | > 100 µM (inactive) | > 100 µM (inactive) | > 100 µM (inactive) | > 100 µM (inactive) | > 100 µM (inactive) | > 100 µM (inactive) | > 100 µM (inactive) | > 100 µM (inactive) | > 100 µM (inactive) | > 100 µM (inactive) | > 100 µM (inactive) | – | – | > 100 µM (inactive) | > 100 µM (inactive)
8 | CC(C)CCC[C@@H](C)[C@H]1CC[C@H]2C3=C[C@H](OS(=O)(=O)O)[C@@]4(O)C[C@@H](O)CC[C@]4(C)[C@@]3(O)CC[C@]12C | > 100 µM (inactive) | – | > 100 µM (inactive) | > 100 µM (inactive) | > 100 µM (inactive) | > 100 µM (inactive) | > 100 µM (inactive) | > 100 µM (inactive) | > 100 µM (inactive) | 42 µM (inactive) | > 100 µM (inactive) | > 100 µM (inactive) | > 100 µM (inactive) | > 100 µM (inactive) | > 100 µM (inactive) | – | > 100 µM (inactive) | > 100 µM (inactive) | 68.5 µM (inactive)
9 | c1cc(-c2ncc(-c3ccc4c(c3)CCCO4)o2)ccn1 | 13.2 µM (inactive) | 2.08 µM (inactive) | 12 µM (inactive) | 15.6 µM (inactive) | 17.7 µM (inactive) | 22.3 µM (inactive) | 7.41 µM (inactive) | 42.2 µM (inactive) | 18 µM (inactive) | 7.4 µM (inactive) | 2.36 µM (inactive) | 18.6 µM (inactive) | 21.6 µM (inactive) | 8.83 µM (inactive) | 15.6 µM (inactive) | 2.42 µM (inactive) | 10.4 µM (inactive) | 21.6 µM (inactive) | –
10 | CC(C)CC1NC(=O)C(C(C)C)NC(=O)CC(C)COC(=O)C(CC(C)C)N(C)C(=O)C(C(C)C)NC(=O)C(C(C)C)OC1=O (stereo not given) | > 50 µM (inactive) | 10.9 µM (inactive) | > 50 µM (inactive) | 29.1 µM (inactive) | 19.7 µM (inactive) | > 50 µM (inactive) | > 50 µM (inactive) | 37.7 µM (inactive) | – | > 50 µM (inactive) | > 50 µM (inactive) | > 50 µM (inactive) | 26.5 µM (inactive) | 16.1 µM (inactive) | > 50 µM (inactive) | – | > 50 µM (inactive) | 38.5 µM (inactive) | > 50 µM (inactive)
11 | CCOC(=O)CCCN | > 100 µM (inactive) | > 100 µM (inactive) | > 100 µM (inactive) | > 100 µM (inactive) | > 100 µM (inactive) | > 100 µM (inactive) | > 100 µM (inactive) | > 100 µM (inactive) | > 100 µM (inactive) | > 100 µM (inactive) | > 100 µM (inactive) | > 100 µM (inactive) | > 100 µM (inactive) | > 100 µM (inactive) | > 100 µM (inactive) | > 100 µM (inactive) | > 100 µM (inactive) | > 100 µM (inactive) | –
12 | COc1ccc2cc1Oc1ccc(cc1)CC1c3cc(OC)c(cc3CCN1C)Oc1c(OC)c(OC)cc3c1C(C2)N(C)CC3 (stereo not given) | 10.8 µM (inactive) | 8.63 µM (inactive) | 12.6 µM (inactive) | 29.4 µM (inactive) | 10 µM (inactive) | 9.57 µM (inactive) | 17.5 µM (inactive) | 34.2 µM (inactive) | 10.6 µM (inactive) | 8.79 µM (inactive) | 12 µM (inactive) | 12.2 µM (inactive) | 16.3 µM (inactive) | – | 18.8 µM (inactive) | 4.71 µM (inactive) | 11.4 µM (inactive) | 4.91 µM (inactive) | 1.17 µM (inactive)
13 | O=C(c1ccccc1)N1CCN(C(=S)N(C(=O)c2ccccc2)c2ccccc2)C1=S | 3.85 µM (inactive) | 2.16 µM (inactive) | 3.01 µM (inactive) | 15.5 µM (inactive) | 10.3 µM (inactive) | 2.79 µM (inactive) | 5.26 µM (inactive) | 15.9 µM (inactive) | 4.6 µM (inactive) | 5.42 µM (inactive) | 3.84 µM (inactive) | 5.92 µM (inactive) | 6.37 µM (inactive) | – | 3.52 µM (inactive) | 2.25 µM (inactive) | 5.13 µM (inactive) | 3.17 µM (inactive) | 2.07 µM (inactive)
14 | CCN(CC)COC(=S)S | > 94.6 µM (inactive) | 30.5 µM (inactive) | 54.6 µM (inactive) | > 100 µM (inactive) | 35.4 µM (inactive) | > 100 µM (inactive) | > 100 µM (inactive) | > 100 µM (inactive) | 48.8 µM (inactive) | 39 µM (inactive) | 38.3 µM (inactive) | > 100 µM (inactive) | > 100 µM (inactive) | – | 89.7 µM (inactive) | < 0.01 µM (active) | 55.8 µM (inactive) | 44.1 µM (inactive) | 0.233 µM (active)
15 | CC1C(c2ccccc2)O[B-](F)(c2ccccc2)[NH+]1C (stereo not given) | > 100 µM (inactive) | 37.2 µM (inactive) | > 100 µM (inactive) | > 100 µM (inactive) | > 100 µM (inactive) | > 100 µM (inactive) | > 100 µM (inactive) | > 100 µM (inactive) | > 100 µM (inactive) | > 100 µM (inactive) | > 100 µM (inactive) | > 100 µM (inactive) | > 100 µM (inactive) | – | > 100 µM (inactive) | > 100 µM (inactive) | > 100 µM (inactive) | > 100 µM (inactive) | > 100 µM (inactive)
